≈ marks a conversion by molar mass, not a printed value. Like-named read-outs stand apart in the source and are kept apart here.
How the values were obtained:
[1] = tested on: Bacillus subtilis MTCC 441; assay: In vitro antibacterial activity (CLSI M07-A10 dilution MIC); type: cell-based; details: MTCC441
Description: (§1) Staphylococcus epidermidis, Bacillus subtilis, Enterococcus faecium, Enterococcus faecium resistant to VRE, and Gram-negative organisms including Klebsiella pneumonia, Escherichia coli, and Pseudomonas aeruginosa.

[2] = tested on: Enterococcus faecium ATCC 35667; assay: as above; type: cell-based; details: ATCC35667
Description: as §1

[3] = tested on: Enterococcus faecium ATCC 51559 (VRE resistant); assay: as above; type: cell-based
Description: as §1

[4] = tested on: Escherichia coli MTCC 443; assay: as above; type: cell-based
Description: as §1

[5] = tested on: Klebsiella pneumonia MTCC 618; assay: as above; type: cell-based; details: Klebsiella pneumoniae, MTCC618
Description: as §1

[6] = tested on: Pseudomonas aeruginosa MTCC 741; assay: as above; type: cell-based; details: MTCC741
Description: as §1

[7] = tested on: Staphylococcus aureus ATCC 29213; assay: as above; type: cell-based; details: ATCC29213
Description: as §1

[8] = tested on: Staphylococcus aureus ATCC BAA-1556 (MERSA resistant); assay: as above; type: cell-based; details: ATCCBAA1556
Description: as §1

[9] = tested on: Staphylococcus epidermidis; assay: as above; type: cell-based
Description: as §1

[10] = tested on: Mycobacterium tuberculosis H37Rv strain; assay: Anti-tubercular alamar blue microplate MIC; type: cell-based; details: 168 h, M. tuberculosis H37Rv, seven days incubation, read-out: anti-mycobacterial activity (MIC)
[11] = target: T1, DNA gyrase from E. coli (Escherichia coli, UniProt P0AES4+P0AES6); assay: Inhibitory activity on E. coli DNA gyrase (Inspiralis assay); type: biochemical
T1 construct: purchased Inspiralis
T1 sequence (P0AES4 whole entry, one chain of several): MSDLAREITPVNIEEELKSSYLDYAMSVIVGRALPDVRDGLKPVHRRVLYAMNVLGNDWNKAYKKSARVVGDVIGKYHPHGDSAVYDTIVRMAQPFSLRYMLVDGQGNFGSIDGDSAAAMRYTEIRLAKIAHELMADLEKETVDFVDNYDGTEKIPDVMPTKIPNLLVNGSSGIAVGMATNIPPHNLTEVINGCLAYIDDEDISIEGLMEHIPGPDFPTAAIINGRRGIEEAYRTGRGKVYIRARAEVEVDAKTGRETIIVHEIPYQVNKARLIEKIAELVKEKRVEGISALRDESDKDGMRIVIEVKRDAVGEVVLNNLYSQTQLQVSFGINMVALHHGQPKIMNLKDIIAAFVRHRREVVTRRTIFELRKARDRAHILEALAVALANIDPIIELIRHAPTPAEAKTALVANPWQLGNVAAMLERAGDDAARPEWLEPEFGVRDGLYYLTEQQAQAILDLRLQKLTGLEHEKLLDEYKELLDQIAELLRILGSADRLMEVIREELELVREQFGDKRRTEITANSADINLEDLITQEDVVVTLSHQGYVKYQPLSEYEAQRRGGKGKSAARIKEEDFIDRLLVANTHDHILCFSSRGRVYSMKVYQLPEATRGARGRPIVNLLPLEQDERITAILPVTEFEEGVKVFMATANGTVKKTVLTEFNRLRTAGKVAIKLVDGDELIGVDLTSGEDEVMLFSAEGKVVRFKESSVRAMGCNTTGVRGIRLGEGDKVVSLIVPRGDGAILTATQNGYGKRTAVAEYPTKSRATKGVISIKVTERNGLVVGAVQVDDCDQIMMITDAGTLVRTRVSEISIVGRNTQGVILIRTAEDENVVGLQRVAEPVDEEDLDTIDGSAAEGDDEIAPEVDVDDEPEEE
Method: Inhibitory potencies were investigated utilizing the Inspiralis assay on streptavidin-coated 96-well microtiter plates. First, the plates were rehydrated with buffer (20 mM Tris-HCl with pH 7.6, 0.01% w/v BSA, 0.05% v/v Tween 20, 137 mM NaCl) and the biotinylated oligonucleotide was then immobilized. After washing off the unbound oligonucleotide, the enzyme test was performed. […] Reaction solutions were incubated at 37° C. for 30 min. After that, the TF buffer (50 mM NaOAc with pH 5.0, 50 mM NaCl and 50 mM MgCl2) was added to terminate the enzymatic reaction. After additional incubation for 30 min at rt, during which biotinoligonucleotide-plasmid triplex was formed, the unbound plasmid was washed off using TF buffer and SybrGOLD in T10 buffer (10 mM Tris HCl with pH 8.0 and 1 mM EDTA) was added. […] Initial screening was done at 100 or 10 μM concentration of inhibitors. […] GraphPad Prism software was used to calculate the IC50 values. The result is given as the average value of three independent measurements.

[12] = Escherichia coli MTCC 443 + efflux pump inhibitor PAβN (200 μg/mL)

## CCCCCN(C)Cc1cc(C(=O)O)ccc1-n1ccc2c([nH]c3c(NC)cc(F)cc32)c1=O [Compound 6, 4-(6-fluoro-8-(methylamino)-1-oxo-1,9-dihydro-2H-pyrido[3,4-b]indol-2-yl)-3-((methyl(pentyl)amino)methyl)benzoic acid]
[1]; Bacillus subtilis MTCC 441, read-out: MIC
  MIC: 0.5 µg/mL (≈ 1.08 µM)
[2]; Enterococcus faecium ATCC 35667, read-out: MIC
  MIC: 0.5 µg/mL (≈ 1.08 µM)
[3]; Enterococcus faecium ATCC 51559 (VRE resistant), read-out: MIC
  MIC: 0.5 µg/mL (≈ 1.08 µM)
[4]; [12]
  MIC: 0.5 µg/mL
[4]; MTCC443, Escherichia coli MTCC 443, read-out: MIC
  MIC: 8 µg/mL (≈ 17.2 µM)
[5]; Klebsiella pneumonia MTCC 618, read-out: MIC
  MIC: 1 µg/mL (≈ 2.15 µM)
[6]; Pseudomonas aeruginosa MTCC 741, read-out: MIC
  MIC: 0.75 µg/mL (≈ 1.61 µM)
[7]; Staphylococcus aureus ATCC 29213, read-out: MIC
  MIC: 0.75 µg/mL (≈ 1.61 µM)
[8]; Staphylococcus aureus ATCC BAA-1556 (MERSA resistant), read-out: MIC
  MIC: 0.75 µg/mL (≈ 1.61 µM)
[9]; read-out: MIC
  MIC: 0.75 µg/mL (≈ 1.61 µM)
[10]
  MIC: 8 µg/mL (≈ 17.2 µM)
[11]
  IC50: 18 nM

## CN[C@H](CC(C)C)C(=O)N[C@H]1C(=O)N[C@@H](CC(N)=O)C(=O)N[C@H]2C(=O)N[C@H]3C(=O)N[C@H](C(=O)N[C@H](C(=O)O)c4cc(O)cc(O)c4-c4cc3ccc4O)[C@H](O)c3ccc(c(Cl)c3)Oc3cc2cc(c3O[C@@H]2O[C@H](CO)[C@@H](O)[C@H](O)[C@H]2O[C@H]2C[C@](C)(N)[C@H](O)[C@H](C)O2)Oc2ccc(cc2Cl)[C@H]1O [Vancomycin, reference compound]
[1]; Bacillus subtilis
  MIC: 0.5 µg/mL (≈ 0.345 µM)
[2]; Enterococcus faecium
  MIC: 0.5 µg/mL (≈ 0.345 µM)
[3]; Enterococcus faecium
  MIC: > 128 µg/mL
[4]; [12]
  MIC: >128 µg/mL
[4]; Escherichia coli, MTCC443
  MIC: > 128 µg/mL
[5]
  MIC: > 128 µg/mL
[6]; Pseudomonas aeruginosa
  MIC: > 128 µg/mL
[7]; Staphylococcus aureus
  MIC: 1 µg/mL (≈ 0.69 µM)
[8]; Staphylococcus aureus
  MIC: 1 µg/mL (≈ 0.69 µM)
[9]
  MIC: 1 µg/mL (≈ 0.69 µM)

Source: patent US11773092B1, “Pyrido[3,4-b]indol-1-one compounds as antibacterial agents” (KING FAISAL UNIVERSITY, priority 2023, dated 2023)
